Numbered stars: 1 amine (or outer) side, 2 acyl side, 3 side chain; on linkers, the order of the positions; unused ones are H or OH. Square brackets hold non-standard residues; d marks the D form. εLys = N[C@@H](CCCCN[*:1])C(=O)[*:2]; dOrn = NCCC[C@@H](N)C(=O)O; βAla = NCCC(=O)O
Key:
[1] = system: human lymphocytes; assay: E. coli bacterial-induced lymphocyte apoptosis, staining for active caspase 3; format: cell-based
Experimental: Thymocytes and splenocytes were obtained from CLP and sham-treated mice ˜20 hours postoperatively. The APO-BRDU™ kit (Phoenix Flow Systems, San Diego, Calif.) was employed for flow cytometric quantitation of TUNEL. Antibodies to active caspase 3 (Cell Signaling—Catalog #9664) were used in the flow cytometry and/or TUNEL assay.
Lymphocytes were harvested from peripheral blood obtained from 6 healthy volunteers using a ficol gradient separation technique. Approximately 1×10^6 lymphocytes were plated in individual transwell containers. E. coli bacteria (strain ATCC 25922), that had been grown overnight in trypticase soy broth were added to a separate compartment of the transwell chamber separated from direct contact with the lymphocytes by a 0.02 micron filter (25 μl of bacteria at 3×10^9 CFUs added to 1 ml volume.

[2] = system: human Jurkat leukemia cells; assay: Cell accumulation (uptake) of Tc-99m-Tat-peptide complexes in Jurkat cells; format: cell-based; details: Jurkat cells
Experimental: Control solution for cell uptake experiments was a modified Earle's balanced salt solution (MEBSS) containing (mM): 145 Na^+, 5.4 K^+, 1.2 Ca^2+, 0.8 Mg^2+, 152 Cl^−, 0.8 H2PO4^−, 0.8 SO4^2−, 5.6 dextrose, 4.0 HEPES, and 1% bovine calf serum (vol/vol), pH 7.4±0.05. A 130 mM K^+/20 mM Cl^− solution was made by equimolar substitution of potassium methanesulfonate for NaCl as described by Piwnica-Worms et al. (J. Gen. Physiol., 81:731-748, 1983).
(§1) Characterization of accumulation of Tc-99m-peptide complex was also performed for nonadherent cell lines such as human Jurkat leukemia cells with minor modifications of methods described in the literature (Bosch et al., Leukemia, 11: 1131-1137, 1997). Transport experiments were performed in siliconized microfuge tubes and initiated by addition of 732.5 μl of cells at 2-3×10^6 cells/ml to 10 μl of buffer containing Tc-99m-peptide complex and 7.5 μl of vehicle alone or of any added drug in vehicle at 100-fold the desired concentration. The tubes were incubated in a 37° C. water bath with occasional mixing. The reaction was terminated by centrifuging 250 μl aliquots from the reaction for 10 seconds through 800 μl of a 75:25 mixture of silicon oil, density=1.050 (Aldrich) and mineral oil, density=0.875 (Acros). An aliquot of the aqueous phase was obtained to normalize extracellular concentration of the complex to cell-associated activity, then the oil and aqueous phases were aspirated and the cell pellet extracted in 0.5 ml of 1% SDS, 10 mM sodium borate. For tracer washout experiments, cells were first incubated to plateau uptake (10 min) in loading buffer (37° C.), collected by rapid centrifugation and the pellet resuspended in 50 ml MEBSS (4° C.) to clear extracellular tracer. Following another rapid spin, the cell pellet was resuspended in isotope-free MEBSS (37° C.) and the experiment terminated as above after various times in warm washout buffer. Radioactivity of the cell pellet, buffers and stocks were determined on a gamma counter (Cobra II, 130-165 keV window) and cell protein was determined by the BCA assay (Pierce). Transport data are reported as fmol Tc-complex (mg protein)^−1 (nM0)^− as previously described, with (nM0)^−1 representing total concentration of peptide conjugate in the extracellular buffer (Piwnica-Worms et al., Circulation, 82: 1826-1838, 1990).
Kinetic experiments of [^99mTc]D-Tat-peptide complexes were performed in Jurkat leukemia cells suspended in MEBSS with minor modification of the methods described in Example 6. Transport experiments were performed in siliconized microfuge tubes and initiated by addition of 732.5 μl of cells at 2-3×10^6 cells/ml to 10 μl of MEBSS containing [^99mTc]D-Tat-peptide complex and 7.5 μl of vehicle alone or of any added drug in vehicle at 100 fold the desired concentration. Unless stated otherwise, [^99mTc]D-Tat-peptide complex was added to MEBSS accompanied by a molar excess of unlabeled D-Tat-peptide as obtained directly from the labeling procedure. The final total peptide concentration was 7 nM to 8 μM (1-2 μCi/ml). The tube were incubated at 37° C. and the reaction terminated as previously described. For peptide washout experiments, cells were first incubated to plateau uptake (20 minutes) in MEBSS loading buffer at 37° C., collected by rapid centrifugation and the pellet resuspended in 50 ml of isotope-free MEBSS at 4° C. to clear extracellular tracer. Following another rapid spin, the cell pellet was resuspended in isotope-free MEBSS at 37° C. for various times and the reaction terminated as described previously. Protein assays and determination of gamma activity were as described in Example 6. Absolute concentration of total [Tc]Tat-peptide complex in solution was determined from the specific activity of Tc, based on equations of Mo/Tc generator equilibrium (Lamson et al., J. Nucl. Med., 16:639-641, 1975). […]

[3] = system: human Jurkat leukemia cells; assay: Washout of Tc-99m-Tat-peptide complexes from preloaded Jurkat cells; format: cell-based; details: residual activity remaining within the cell 30 minutes after a wash in isotope-free buffer
Experimental: as §1
Kinetic experiments of [^99mTc]D-Tat-peptide complexes were performed in Jurkat leukemia cells suspended in MEBSS with minor modification of the methods described in Example 6. Transport experiments were performed in siliconized microfuge tubes and initiated by addition of 732.5 μl of cells at 2-3×10^6 cells/ml to 10 μl of MEBSS containing [^99mTc]D-Tat-peptide complex and 7.5 μl of vehicle alone or of any added drug in vehicle at 100 fold the desired concentration. Unless stated otherwise, [^99mTc]D-Tat-peptide complex was added to MEBSS accompanied by a molar excess of unlabeled D-Tat-peptide as obtained directly from the labeling procedure. The final total peptide concentration was 7 nM to 8 μM (1-2 μCi/ml). The tube were incubated at 37° C. and the reaction terminated as previously described. For peptide washout experiments, cells were first incubated to plateau uptake (20 minutes) in MEBSS loading buffer at 37° C., collected by rapid centrifugation and the pellet resuspended in 50 ml of isotope-free MEBSS at 4° C. to clear extracellular tracer. Following another rapid spin, the cell pellet was resuspended in isotope-free MEBSS at 37° C. for various times and the reaction terminated as described previously. Protein assays and determination of gamma activity were as described in Example 6. Absolute concentration of total [Tc]Tat-peptide complex in solution was determined from the specific activity of Tc, based on equations of Mo/Tc generator equilibrium (Lamson et al., J. Nucl. Med., 16:639-641, 1975). Transport data are reported as pmol of peptidei (mg protein)^−1 (μM0)^−1, wherein peptidei represents total peptide conjugate within the cells and (nM0)^−1 represents concentration of total peptide conjugate in the extracellular buffer.

[4] = system: human KB-3-1 and KB-8-5 epidermoid carcinoma cells; assay: Fluorescence (confocal) microscopy of subcellular distribution; format: cell-based; details: 0.5 μM extracellular concentration, KB-3-1 and KB-8-5 cells
Experimental: Subsequently, cells on covers lips were fixed in 4% (v/v) formaldehyde in PBS at room temperature and then rinsed 3 times with PBS (1 min each). Cells were then stained and mounted with anti-fading mounting medium containing propidium iodide (1 μg/ml) following the recommended procedures of the manufacturer (Vectashield). The distribution of the fluorescence was analyzed on a Zeiss confocal laser fluorescence microscope equipped with a mercury lamp, oil immersion objectives and a CCD interfaced to a PC. Propidium iodide distribution was interrogated using 340-380 nm excitation and 430 nm emission, while fluorescein distribution was interrogated using 450-490 nm excitation and 520 nm emission.
To localize the subcellular distribution of the Tat-peptide conjugate, uptake experiments were performed with the fluorescein derivatized conjugate using human KB-3-1 and KB-8-5 epidermoid carcinoma cells.

[5] = molecular target: T1, caspase-3 (Homo sapiens, UniProt P42574); assay: Cleavage of the caspase-3 cleavable linker in situ in C6-ceramide-treated Jurkat cells; format: cell-based; details: 5 μM C6-ceramide, 1 μM peptide, RP-HPLC at 440 nm of lysates
T1 construct: Human Jurkat leukemia cells express pro-caspase-3; endogenous in cells; host or cells: Jurkat (human T-cell leukemia)
T1 sequence (P42574 29-175 limits assumed): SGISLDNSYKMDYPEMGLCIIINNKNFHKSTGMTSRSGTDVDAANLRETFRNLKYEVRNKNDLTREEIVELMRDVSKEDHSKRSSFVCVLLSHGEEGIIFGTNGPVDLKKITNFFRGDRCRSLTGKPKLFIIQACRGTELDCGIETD
T1 sequence (P42574 176-277 limits assumed): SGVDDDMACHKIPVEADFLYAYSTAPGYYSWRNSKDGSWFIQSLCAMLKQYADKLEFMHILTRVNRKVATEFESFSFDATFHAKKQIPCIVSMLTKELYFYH
Experimental: Human Jurkat leukemia cells express pro-caspase-3. Apoptosis can be induced by pre-incubation of Jurkat cells for 5 hr in medium containing C6-ceramide, a permeant phospholipid known to activate the cell death program (Herr, et al., EMBO J 16:6200-6208, 1997; Jayadev S, et al., J. Biol Chem 270:2047-2052, 1995). After pre-incubation of Jurkat cells in MEBSS buffer at […] in the absence (untreated) or presence of 5 μM C6-ceramide, 1 μM of the caspase-3 cleavable fluorescein tagged Tat peptide of Example 8 was added to the MEBSS buffer for 30 minutes. Untreated and apoptotic cells were then spun through oil (see Example 6) to clear extracellular spaces of Tat peptide, and the intact cells in the pellet were allowed to incubate for 5 minutes at 37° C. The oil was quickly suctioned off, the reaction terminated with cell lysis buffer (1% SDS, 10 mM sodium borate), and the cell extract centrifuged (500×g for 10 min) to pellet debris and precipitates. The supernatant was removed, lyophilized overnight, and resuspended in 500 μl of water. […] In C6-ceramide-treated cells, however, no such species was observable (FIG. 7).
The above experiment was repeated using the Tc-99m-Tat peptide of Example 8. […] Tc99-m and protein content were determined using published methods (Bosch et al., Leukemia 11:1131-37, 1997).

[6] = molecular target: T2, recombinant human active caspase-3 (Homo sapiens, UniProt P42574); assay: Cleavage of the caspase-3 cleavable linker in vitro; format: biochemical; details: 6 hrs incubation with active caspase-3, TLC
T2 construct: recombinant human active caspase-3
T2 sequence (P42574 29-175 limits assumed): T1 sequence (P42574 29-175 limits assumed)
T2 sequence (P42574 176-277 limits assumed): T1 sequence (P42574 176-277 limits assumed)
Experimental: In small reaction vials, Tat peptide chelate as the fluorescein tagged conjugate of Example 8 was incubated with and without recombinant human active caspase-3 in commercially available reaction buffer (caspase buffer, Invitrogen). In vial 1 was peptide conjugate in buffer without caspase-3; in vial 2 was peptide conjugate with active caspase-3; and in vial 3 was stock peptide conjugate. After 6 hrs of incubation to assure completion of the reaction, the reaction mixtures were spotted at the origin of silica gel TLC plates, developed in 15% TFA, and analyzed under an UV lamp. […] This represents direct evidence for successful synthesis of a caspase-3-cleavable Tat peptide imaging conjugate.

For “(d)-Ac-RKKRR-Orn-RRR-β-A-(l)-SNRELVVDFLSDKLSQKGDS-COOH (Ac-[dR][dK][dK][dR][dR][dOrn][dR][dR][dR][βAla]SNRELVVDFLSDKLSQKGDS-OH; SMILES CC(=O)N[C@H](CCCNC(=N)N)C(=O)N[C@H](CCCCN)C(=O)N[C@H](CCCCN)C(=O)N[C@H](CCCNC(=N)N)C(=O)N[C@H](CCCNC(=N)N)C(=O)N[C@H](CCCN)C(=O)N[C@H](CCCNC(=N)N)C(=O)N[C@H](CCCNC(=N)N)C(=O)N[C@H](CCCNC(=N)N)C(=O)NCCC(=O)N[C@@H](CO)C(=O)N[C@@H](CC(N)=O)C(=O)N[C@@H](CCCNC(=N)N)C(=O)N[C@@H](CCC(=O)O)C(=O)N[C@@H](CC(C)C)C(=O)N[C@H](C(=O)N[C@H](C(=O)N[C@@H](CC(=O)O)C(=O)N[C@@H](Cc1ccccc1)C(=O)N[C@@H](CC(C)C)C(=O)N[C@@H](CO)C(=O)N[C@@H](CC(=O)O)C(=O)N[C@@H](CCCCN)C(=O)N[C@@H](CC(C)C)C(=O)N[C@@H](CO)C(=O)N[C@@H](CCC(N)=O)C(=O)N[C@@H](CCCCN)C(=O)NCC(=O)N[C@@H](CC(=O)O)C(=O)N[C@@H](CO)C(=O)O)C(C)C)C(C)C) [TAT-BH4(D)2, reference compound]”, the bacterial-induced apoptosis ([1]; 1 μM, human lymphocytes, live E. coli ~5 hours) was “did not prevent apoptosis”.

For “Bcl-xL: free unconjugated Bcl-xL, anti-apoptotic Bcl-2 family protein”, the “CD3 T cell apoptosis by staining for active caspase 3” value ([1]; human lymphocytes treated with live E. coli for ~5 hours) was “a similar decrease was not seen”.

“acetyl-GRKKRRORRR-AHA-εKGC-amide-fluorescein-maleimide trifluoroacetate [Example 3]” was tested, and the “20 min Uptake” value ([2]; [99mTc] complexes, 37° C., 20 min) was 42.74 pmol (mg protein)^−1 (μM0)^−1, the “U/W Ratio” value ([2]; uptake/washout ratio) was 1.8 and the “30 min Washout” value [3] was 24.32 pmol (mg protein)^−1 (μM0)^−1. For the same substance, the subcellular distribution [4] was “rapid cytoplasmic and nuclear accumulation”.

With “fluorescein tagged conjugate of Example 8: caspase-3 cleavable Tat peptide conjugate labeled at the C-terminal thiol of the peptide chelator with fluorescein maleimide (Ac-GRKKRRQRRRGDEVDG[εLys]GC(fluorescein maleimide)-NH2; not fully specified; printed as acetyl-GRKKRRQRRR-GDEVDG-εKGC-amide; also: conjugate)” the “cleavage in living cells upon activation of caspase-3” value ([5]; listed as caspase-3 cleavable fluorescein tagged Tat peptide of Example 8) was “rapid cleavage”, the “cleavage in living cells upon activation of caspase-3” value ([5]; listed as fluorescein tagged Tat peptide) was “absence of the intact Tat peptide” and the “cleavage by caspase-3” value [6] was “cleavage of the Tat peptide conjugate at the D-G cleavage site”.

Source: patent publication US8038984B2, “Membrane-permeant peptide complexes for treatment of sepsis” (Washington University, priority 1998, dated 2011)
